Data published in PMC4467139, “Garcinol sensitizes human head and neck carcinoma to cisplatin in a xenograft mouse model despite downregulation of proliferative biomarkers” (Oncotarget, 2015).
Like-named read-outs stand apart in the source and are kept apart here. Peptide text beside a SMILES is read from it. * marks the point of attachment. Cbz = O=C(OCc1ccccc1)*; CH2F = FC*

Columns and labels:
[1] = test system: PARP cleavage in CAL27 cells; assay: Western blot of PARP cleavage; assay type: cell-based, human; conditions: Z-VAD-fmk 20 μM together with 15 μM garcinol and 5 μM cisplatin, 48 h
Experimental: Vehicle or drug-treated whole-cell extracts were lysed in lysis buffer [250 mM NaCl, 20 mM HEPES, 2 mM EDTA (pH 8.0), 0.5 mM EGTA, 0.1% Triton X-100, 1.5 μg/mL aprotinin, 1.5 μg/mL leupeptin, 1 mM phenylmethylsulfonylfluoride (PMSF), and 1.5 mM NaVO4]. Lysates were then spun at 13,300 rpm for 10 min to remove insoluble material and resolved on a 10% SDS gel. After electrophoresis, the proteins were electrotransferred to a nitrocellulose membrane (Bio-Rad), blocked with Blocking One (Nacalai Tesque, Inc.), and probed with antibodies of interest overnight at 4 °C. The blot was washed with TBS with 0.1% Tween-20, exposed to HRP-conjugated secondary antibodies for 1 h, and finally examined by chemiluminescence using Western Bright Sirius HRP substrate (Advansta).
Supplementary Figure 2: Z-VAD-fmk abrogates the garcinol-induced caspase-3 activation. CAL27 cells (5 × 10^5 cells/mL) were treated with 15 μM garcinol and/or 5 μM cisplatin for 48 h in the absence or presence of 20 μM Z-VAD-fmk, whole-cell extracts were prepared, separated by SDS-PAGE, and subjected to western blot against PARP antibody. The same blot was stripped and reprobed with β-actin antibody to verify equal protein loading.
(also on this page, place not known: www.impactjournals.com/oncotarget/ Oncotarget, Materials 2014 Supplementary Z-V AD-fmk 10 5 Z-V AD-fmk,) […]

CAL27 xenografts = assay: HNSCC xenograft mouse model, tumor volume; assay type: in vivo, athymic nu/nu female mice; conditions: 4 weeks, garcinol 0.5 mg/kg i.p. five times/week, cisplatin 2 mg/kg i.p. twice weekly
Experimental: (§1) All procedures involving animals were reviewed and approved by NUS Institutional Animal Care and Use Committee. Six-week old athymic nu/nu female mice (Animal Resource Centre, Australia) were implanted subcutaneously in the right flank with CAL27 cells (3 × 10^6 cells/100 μL saline). When tumors have reached 0.25 cm in diameter, the mice were randomized into the following treatment groups (n = 5/group): (I) untreated control (0.1% DMSO, 100 μL daily); (II) garcinol (0.5 mg/kg body weight, suspended in 0.1% DMSO, intraperitoneal [i.p.] injection, five times/week); (III) cisplatin alone (2 mg/kg body weight, suspended in 0.1% DMSO, i.p. injection, twice/week); and (IV) combination (garcinol, 0.5 mg/kg body weight, i.p. injection, five times/week and cisplatin, 2 mg/kg body weight, i.p. injection, twice/week). Therapy was continued for 4 weeks, and the animals were euthanized 24 h after the last dose. Primary tumors were excised and the final tumor volume was calculated using the formula V = L × (W)^2/2 where L is the length and W is the width. Half of the tumor tissue was fixed in formalin and embedded in paraffin for immunohistochemistry (IHC) analysis. The other half was snap frozen in liquid nitrogen and stored at −80°C.

MDA686LN cells = assay: MTT cell viability assay; assay type: cell-based; conditions: Homo sapiens, 72 h
Experimental: (§2) The inhibitory effect of garcinol against HNSCC cell growth was determined by the MTT dye uptake method as described previously. Briefly, the cells (5 × 10^4 cells/mL) were incubated in triplicate in a 96-well plate in the presence or absence of different concentrations of garcinol in a final volume of 0.2 mL for indicated time intervals at 37 °C. Thereafter, 20 μL MTT solution (5 mg/mL in PBS) was added to each well. After a 2 h incubation at 37°C, 0.1 mL lysis buffer (20% SDS, 50% dimethylformamide) was added after removal of the medium, incubation was continued at 37°C for 1 h, and then the optical density (OD) at 570 nm was measured by the Safire2™ microplate reader (Tecan).

UMSCC1 cells = assay: MTT cell viability assay; assay type: cell-based; conditions: Homo sapiens, UMSCC1, 72 h
Experimental: as §2

[2] = Pharmacokinetics study of garcinol in mice; assay type: in vivo; conditions: nude, ip, mouse serum; for AUC: read-out: area under the serum concentration-time curve (AUC) at 8 h; for Cmax: read-out: peak serum concentration (Cmax); for Tmax: read-out: time of peak serum concentration post-dose
Experimental: Pharmacokinetics of garcinol was conducted in nude mice by i.p. injection at dose of 0.5 mg/kg or 2 mg/kg. The mice were allowed food and water ad libitum before pharmacokinetics experiment. About 150 μL of blood was taken from facial vein of mice at 10 min, 30 min, 1, 2, 4, 6, and 8 h post-dose. After centrifugation of blood samples at 14,000 rpm at 4°C for 10 min, mouse sera (the supernatant) were transferred into Eppendorf tube. 10 μL of each serum was processed by adding 3-folds excess of acetonitrile-containing isogarcinol, the internal standard followed by vortexing for 1 min. The tube was then centrifuged at 14,000 rpm at 4°C for 10 min. Then 30 μL of the supernatants were transferred into glass inserts (250 μL) with 70 μL of 10 mM ammonia acetate solution. 50 μL of processed serum samples were injected into LC-MS/MS which was carried out under negative electrospray ionization (ESI) and multiple reaction monitoring (MRM) mode. […] The daughter ion monitored for garcinol and isogarcinol was 409 and 335, respectively. SCIEX Analyst software (version 1.4.2) was used for data acquisition and analysis.

[3] = test system: NF-κB-dependent reporter gene expression in MDA686Tu cells; assay: NF-κB luciferase reporter assay; assay type: cell-based, human; conditions: 12 h
Experimental: MDA686Tu cells (1 × 10^4 cells/well) in 96-well were transfected of plasmid with NF-κB responsive […] elements linked to a luciferase reporter gene using lipofectamine® 2000. After transfection for 48 h, indicated concentrations of garcinol were added into the wells for 12 h. Luciferase activity was determined using Bright-Glo™ luciferase assay kit from Promega.

[4] = Body weight during xenograft experiment; assay type: in vivo, athymic nu/nu female mice; conditions: four week treatment; garcinol 0.5 mg/kg i.p. five times/week, alone or with cisplatin 2 mg/kg i.p. twice weekly
Experimental: as §1

CAL27 cells = assay: MTT cell viability assay; assay type: cell-based; conditions: Homo sapiens, CAL-27, CAL27, 72 h
Experimental: as §2, with “(Tecan). […]” for “(Tecan).”
www.impactjournals.com/oncotarget/ Oncotarget, Supplementary Materials 2015 […]
Supplementary Figure 1: (A) Garcinol augments the cytotoxic effect of cisplatin in HNSCC cells. CAL27 cells (1 × 10^4 cells/well) were exposed for 48 h to different concentrations of garcinol and cisplatin, and their combination and then subjected to MTT assay to analyze the viability of tumor cells. (B) Assessment on the type of combination relationship was done using the method developed by Chou-Talalay multiple drug effect equation. The degree of synergy was assessed based on CI values, where CI values of > 1.0 implies antagonism, 1.0 implies additive and < 1.0 implies synergistic effect relationships. […]

Compound: COC(=O)C[C@H](NC(=O)[C@H](C)NC(=O)[C@@H](NC(=O)OCc1ccccc1)C(C)C)C(=O)CF [Z-VAD-fmk] (Cbz-Val-Ala-Asp(OMe)-CH2F)
- effect on increased PARP cleavage [1]: completely blocked

Compound: N.N.[Cl][Pt][Cl] [cisplatin, cis-dichloro-diammineplatinum (II)]
- reduction of tumor volume (CAL27 xenografts): 50%

Compound: C=C(C)[C@@H](CC=C(C)C)C[C@@]12C[C@@H](CC=C(C)C)C(C)(C)[C@@](CC=C(C)C)(C(=O)C(C(=O)c3ccc(O)c(O)c3)=C1O)C2=O [garcinol]
- IC50 (MDA686LN cells): 13.8 µM
- IC50 (UMSCC1 cells): 11.6 µM
- AUC ([2]; 0.5 mg/kg i.p.): 4.3 µM·h
- Cmax ([2]; 0.5 mg/kg i.p.): 1.83 µM
- Tmax ([2]; 0.5 mg/kg i.p.): 30 min
- AUC ([2]; 2 mg/kg i.p.): 16.9 µM·h
- Cmax ([2]; 2 mg/kg i.p.): 6.64 µM
- Tmax ([2]; 2 mg/kg i.p.): 30 min
- NF-κB-dependent reporter gene expression [3]: significantly abrogate
- reduction of tumor volume (CAL27 xenografts): 50%
- body weight of the animals [4]: no significant loss of body weight
- IC50 (CAL27 cells): 14.7 µM
